Measured values from patent US10358446B2, “Bruton's tyrosine kinase inhibitors” (Zibo Biopolar Changsheng Pharmaceutical Co. Ltd., priority 2015, dated 2019).

target: BTK (Homo sapiens (Human), UniProt Q06187); assay: Btk kinase assay (HTRF); assay type: biochemical; settings: [ATP]=80 μM, BTK=3.4 nM; read-out: BTK Inhibition
Description: Btk kinase activity was determined using a homogenous time resolved fluorescence (HTRF) methodology. Measurements were performed in a reaction volume of 15 μL using 384-well assay plates. Kinase enzyme, inhibitor, ATP and 1 μM peptide substrate were incubated in a reaction buffer compose of Hepes 50 mM (pH7.0), NaN3 0.02%, BSA 0.01%, Orthocanadate 0.1 mM. After one hour, the kinase reaction was quenched by the addition of […] antibody and XL-665 in 1× Detection buffer containing 60 mM EDTA (Cisbio), and the mixture was allowed to incubate for one hour. The HTRF signal was measured on a multimode plate reader (EnVision® Multilabel Reader, Perkin Elmer) with an excitation wavelength (λEx) of 330 nm and detection wavelengths (λEm) of 615 and 665 nrm. Activity was determined by the ratio of the fluorescence at 665 nm to that at 615 nm. For each compound, enzyme activity as measured at various concentrations of compound, Negative control reactions were performed in the absence of inhibitor in two replicates and eight no enzyme controls were used to determine baseline fluorescence levels. IC50s were obtained according to the equation: […] For BTK assay, [ATP]=80 μM, BTK=3.4 nM.

BTK, sequence (Q06187 whole entry, species assumed): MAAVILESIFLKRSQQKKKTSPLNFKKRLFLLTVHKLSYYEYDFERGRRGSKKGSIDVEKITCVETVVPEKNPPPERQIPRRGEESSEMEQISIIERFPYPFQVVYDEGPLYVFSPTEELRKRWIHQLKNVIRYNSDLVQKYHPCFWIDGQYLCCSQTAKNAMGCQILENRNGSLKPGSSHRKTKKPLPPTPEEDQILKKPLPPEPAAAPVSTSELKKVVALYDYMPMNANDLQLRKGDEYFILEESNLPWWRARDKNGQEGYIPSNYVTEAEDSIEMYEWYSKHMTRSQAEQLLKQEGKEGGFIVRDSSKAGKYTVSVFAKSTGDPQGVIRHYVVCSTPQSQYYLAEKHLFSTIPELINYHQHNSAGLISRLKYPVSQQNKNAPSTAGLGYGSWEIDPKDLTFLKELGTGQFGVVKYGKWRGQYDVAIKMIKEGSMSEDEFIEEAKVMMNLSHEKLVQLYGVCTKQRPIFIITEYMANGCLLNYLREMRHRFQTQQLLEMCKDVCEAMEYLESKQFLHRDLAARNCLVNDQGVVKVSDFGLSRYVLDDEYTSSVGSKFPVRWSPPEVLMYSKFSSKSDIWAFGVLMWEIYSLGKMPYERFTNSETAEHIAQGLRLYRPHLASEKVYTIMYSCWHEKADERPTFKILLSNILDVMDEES

SMILES | IC50
C=CC(=O)N1CCC(n2c(=O)n(-c3ccc(Oc4cccc(C(F)(F)F)c4)c(Cl)c3)c3cnccc32)C1 (stereo not shown) [Example 6, 1-(1-acryloylpyrrolidin-3-yl)-3-(3-chloro-4-(3-(trifluoromethyl)phenoxy)phenyl)-1H-imidazo[4,5-c]pyridin-2(3H)-one] | 10 to 100 nM
C=CC(=O)Nc1cccc(-n2c(=O)n(-c3cccc(Oc4ccccc4)c3)c3cnccc32)c1 [Example 7, N-(3-(2-oxo-3-(3-phenoxyphenyl)-2,3-dihydro-1H-imidazo[4,5-c]pyridin-1-yl)phenyl)acrylamide] | 10 to 100 nM
C=CC(=O)N1CC[C@@H](n2c(=O)n(-c3ccc(Oc4cc(Cl)cc(OC)c4)cc3)c3cnccc32)C1 [Example 9, (R)-1-(1-acryloylpyrrolidin-3-yl)-3-(4-(3-chloro-5-methoxyphenoxy)phenyl)-1H-imidazo[4,5-c]pyridin-2(3H)-one] | 10 to 100 nM
C=CC(=O)N1CC[C@@H](n2c(=O)n(-c3ccc(Oc4cccc(C5CC5)c4)cc3)c3cnccc32)C1 [Example 10, (R)-1-(1-acryloylpyrrolidin-3-yl)-3-(4-(3-cyclopropylphenoxy)phenyl)-1H-imidazo[4,5-c]pyridin-2(3H)-one] | 100 to 1000 nM
C=CC(=O)N1CC[C@@H](n2c(=S)n(-c3ccc(Oc4cccc(C)c4)cc3)c3cnccc32)C1 [Example 11, (R)-1-(3-(2-thioxo-3-(4-(m-tolyloxy)phenyl)-2,3-dihydro-1H-imidazo[4,5-c]pyridin-1-yl)pyrrolidin-1-yl)prop-2-en-1-one] | 100 to 1000 nM
C=CC(=O)N1CCC[C@@H](n2c(=O)n(-c3ccc(Oc4ccccc4)c(F)c3)c3cnccc32)C1 [Example 12, (R)-1-(1-acryloylpiperidin-3-yl)-3-(3-fluoro-4-phenoxyphenyl)-1H-imidazo[4,5-c]pyridin-2(3H)-one] | 10 to 100 nM
C=CC(=O)N1CCC[C@@H](n2c(=O)n(-c3ccc(Oc4cccc(C)c4)cc3)c3cnccc32)C1 [Example 13, (R)-1-(1-acryloylpiperidin-3-yl)-3-(4-(m-tolyloxy)phenyl)-1H-imidazo[4,5-c]pyridin-2(3H)-one] | 10 to 100 nM
C=CC(=O)N1CCC[C@@H](n2c(=O)n(-c3ccc(Oc4cccc(OC(C)C)c4)cc3)c3cnccc32)C1 [Example 14, (R)-1-(1-acryloylpiperidin-3-yl)-3-(4-(3-isopropoxyphenoxy)phenyl)-1H-imidazo[4,5-c]pyridin-2(3H)-one] | 10 to 100 nM
C=CC(=O)N1CCC(Cn2c(=O)n(-c3ccc(Oc4ccccc4)cc3)c3cnccc32)CC1 [Example 15, 1-((1-acryloylpiperidin-4-yl)methyl)-3-(4-phenoxyphenyl)-1H-imidazo[4,5-c]pyridin-2(3H)-one] | 100 to 1000 nM
C=CC(=O)N1CC[C@@H](n2c(=O)n(-c3cccc(Oc4ccc(C)cc4)c3)c3cnccc32)C1 [Example 16, (R)-1-(1-acryloylpyrrolidin-3-yl)-3-(3-(p-tolyloxy)phenyl)-1H-imidazo[4,5-c]pyridin-2(3H)-one] | 10 to 100 nM
C=CC(=O)N1CC[C@@H](n2c(=O)n(-c3cccc(Oc4ccc(OC)cc4)c3)c3cnccc32)C1 [Example 17, (R)-1-(1-acryloylpyrrolidin-3-yl)-3-(3-(4-methoxyphenoxy)phenyl)-1H-imidazo[4,5-c]pyridin-2(3H)-one] | 100 to 1000 nM
O=C(/C=C/N1CCOCC1)N1CC[C@@H](n2c(=O)n(-c3ccc(Oc4ccccc4)c(Cl)c3)c3cnccc32)C1 [Example 18, (R,E)-3-(3-chloro-4-phenoxyphenyl)-1-(1-(3-morpholinoacryloyl)pyrolidin-3-yl)-1H-imidazo[4,5-c]-pyridin-2(3H)-one] | 100 to 1000 nM
C=CC(=O)N1CC[C@@H](n2c(=O)n(-c3ccc(Oc4cccc(C)c4)c(Cl)c3)c3cnccc32)C1 [Example 19, (R)-1-(1-acryloylpyrrolidin-3-yl)-3-(3-chloro-4-(m-tolyloxy)phenyl)-1H-imidazo[4,5-c]pyridin-2(3H)-one] | 10 to 100 nM
C=CC(=O)N1CCCC1Cn1c(=O)n(-c2ccc(Oc3ccccc3)cc2)c2cnccc21 (stereo not shown) [Example 21, 1-((1-acryloylpyrrolidin-2-yl)methyl)-3-(4-phenoxyphenyl)-1H-imidazo[4,5-c]pyridin-2(3H)-one] | 10 to 100 nM
O=C(/C=C/c1ccccc1)N1CC[C@@H](n2c(=O)n(-c3ccc(Oc4ccccc4)c(Cl)c3)c3cnccc32)C1 [Example 22, (R,E)-3-(3-chloro-4-phenoxyphenyl)-1-(1-cinnamoylpyrrolidin-3-yl)-1H-imidazo[4,5-c]pyridin-2(3H)-one] | ≥ 10000 nM
C=CS(=O)(=O)N1CC[C@@H](n2c(=O)n(-c3ccc(Oc4ccccc4)c(Cl)c3)c3cnccc32)C1 [Example 23, (R)-3-(3-chloro-4-phenoxyphenyl)-1-(1-(vinylsulfonyl)pyrrolidin-3-yl)-1H-imidazo[4,5-c]pyridin-2(3H)-one] | 10 to 100 nM
C=CC(=O)N1CC[C@@H](n2c(=O)n(-c3ccc(Oc4cccc(OCC)c4)cc3)c3cnccc32)C1 [Example 24, (R)-1-(1-acryloylpyrrolidin-3-yl)-3-(4-(3-ethoxyphenoxy)phenyl)-1H-imidazo[4,5-c]pyridin-2(3H)-one] | 10 to 100 nM
C=CC(=O)N1CC[C@@H](n2c(=O)n(-c3ccc(Oc4cccc(OC(C)C)c4)cc3)c3cnccc32)C1 [Example 25, (R)-1-(1-acryloylpyrrolidin-3-yl)-3-(4-(3-isopropoxyphenoxy)phenyl)-1H-imidazo[4,5-c]pyridin-2(3H)-one] | ≤ 10 nM
C=CC(=O)Nc1cccc(-n2c(=O)n(-c3ccc(Oc4ccccc4)c(C)c3)c3cnccc32)c1 [Example 27, N-(3-(3-(3-methyl-4-phenoxyphenyl)-2-oxo-2,3-dihydro-1H-imidazo [4,5-c]pyridin-1-yl)phenyl)acrylamide] | 1000 to 10000 nM
C=C(C)C(=O)N1CC[C@@H](n2c(=O)n(-c3ccc(Oc4ccccc4)cc3)c3cnccc32)C1 [Example 28, (R)-1-(1-methacryloylpyrrolidin-3-yl)-3-(4-phenoxyphenyl)-1H-imidazo[4,5-c]pyridin-2(3H)-one] | 1000 to 10000 nM

Results, then the compound that gave them:

IC50 | SMILES
≥ 10000 nM | O=C(/C=C/c1ccccc1)N1CC[C@@H](n2c(=O)n(-c3ccc(Oc4ccccc4)cc3)c3cnccc32)C1 [Example 29, (R,E)-1-(1-cinnamoylpyrrolidin-3-yl)-3-(4-phenoxyphenyl)-1H-imidazo[4,5-c]pyridin-2(3H)-one]
≥ 10000 nM | C=CC(=O)N1CCC(n2c(=O)n(-c3ccc(Oc4ccccc4)cc3)c3cnccc32)CC1 [Example 30, 1-(1-acryloylpiperidin-4-yl)-3-(4-phenoxyphenyl)-1H-imidazo[4,5-c]pyridin-2(3H)-one]
≥ 10000 nM | CC(=O)N1CC[C@@H](n2c(=O)n(-c3ccc(Oc4ccccc4)cc3)c3cnccc32)C1 [Example 32, (R)-1-(1-acetylpyrrolidin-3-yl)-3-(4-phenoxyphenyl)-1H-imidazo[4,5-c]pyridin-2(3H)-one]
10 to 100 nM | C=CC(=O)N1CC[C@@H](n2c(=O)n(-c3ccc(Oc4ccccc4)cc3)c3cnccc32)C1 [Example 33, (R)-1-(1-acryloylpyrrolidin-3-yl)-3-(4-phenoxyphenyl)-1H-imidazo[4,5-c]pyridin-2(3H)-one]
≥ 10000 nM | CC#CC(=O)N1CC[C@@H](n2c(=O)n(-c3ccc(Oc4ccccc4)cc3)c3cnccc32)C1 [Example 34, (R)-1-(1-(but-2-ynoyl)pyrrolidin-3-yl)-3-(4-phenoxyphenyl)-1H-imidazo [4,5-c]pyridin-2(3H)-one]
10 to 100 nM | C=CC(=O)N1CC[C@@H](n2c(=O)n(-c3ccc(Oc4ccc(OC)cc4)cc3)c3cnccc32)C1 [Example 35, (R)-1-(1-acryloylpyrrolidin-3-yl)-3-(4-(4-methoxyphenoxy)phenyl)-1H-imidazo[4,5-c]pyridin-2(3H)-one]
100 to 1000 nM | C=CC(=O)N1CC[C@@H](n2c(=O)n(-c3ccc(Oc4ccc(C(F)(F)F)cc4)cc3)c3cnccc32)C1 [Example 36, (R)-1-(1-acryloylpyrrolidin-3-yl)-3-(4-(4-(trifluoromethyl)phenoxy)phenyl)-1H-imidazo[4,5-c]pyridin-2(3H)-one]
100 to 1000 nM | C=CC(=O)N1CC[C@@H](n2c(=O)n(-c3ccc(Oc4ccc(Cl)c(Cl)c4)cc3)c3cnccc32)C1 [Example 37, (R)-1-(1-acryloylpyrrolidin-3-yl)-3-(4-(3,4-dichlorophenoxy)phenyl)-1H-imidazo[4,5-c]pyridin-2(3H)-one]
10 to 100 nM | C=CC(=O)N1CC[C@@H](n2c(=O)n(-c3ccc(Oc4cc(F)cc(F)c4)c(Cl)c3)c3cnccc32)C1 [Example 39, (R)-1-(1-acryloylpyrrolidin-3-yl)-3-(3-chloro-4-(3,5-difluorophenoxy)phenyl)-1H-imidazo[4,5-c]pyridin-2(3H)-one]
10 to 100 nM | C=CC(=O)N1CC[C@@H](n2c(=O)n(-c3ccc(Oc4ccc(OC)c(OC)c4)cc3)c3cnccc32)C1 [Example 40, (R)-1-(1-acryloylpyrrolidin-3-yl)-3-(4-(3,4-dimethoxyphenoxy)phenyl)-1H-imidazo[4,5-c]pyridin-2(3H)-one]
≤ 10 nM | C=CC(=O)N1CC[C@@H](n2c(=O)n(-c3ccc(Oc4cccc(F)c4)c(Cl)c3)c3cnccc32)C1 [Example 41, (R)-1-(1-acryloylpyrrolidin-3-yl)-3-(3-chloro-4-(3-fluorophenoxy)phenyl)-1H-imidazo[4,5-c]pyridin-2(3H)-one]
